From publication PMC5363373, “Zirconium tetraazamacrocycle complexes display extraordinary stability and provide a new strategy for zirconium-89-based radiopharmaceutical development” (Chemical Science, 2016)
Several values for one entry are separate records, joined by “and”; a condition that tells them apart may be missing. Equal values may be shown once.

Assays:
[1] = In vitro EDTA challenge study; format: physicochemical
Protocol: In vitro EDTA challenge study. In vitro EDTA challenge study was carried out by adding 10 µL of each 89Zr-labeled complex (70 μCi, 2.59 MBq) to 500 µL of EDTA (10 mM, 50 mM and 100 mM: pH 5 and pH 7) with a 1:100, 1:500, and 1:1000 ratio of ligand/EDTA. The solutions (n=4) were incubated at 37 °C for 7 days in a thermomixer. Samples were analyzed at 30 min, 1 h, 3 h, 6 h, 1 d, 3 d, 5 d and 7 d post administration to EDTA by radio-TLC using Varian ITLC-SA strips and 0.1 M EDTA (pH 5) as the mobile phase and gamma counting using an energy window of 500-1500 keV and standard protocols .

[2] = In vitro metal competition study; format: physicochemical; settings: for % Intact of 89Zr-complexes: PBS pH 7.4, 37 C
Protocol: In vitro Metal Competition study. To a solution of metal cations [iron (III) chloride, cobalt (II) chloride, zinc (II) chloride, copper (II) chloride, magnesium (II) chloride, gallium (III) nitrate, gadolinium (III) chloride] (1 mM, 200 µL), was added 89Zr-labeled complex (0.1 mM, 10 µL, 80 μCi, 2.96 MBq) in PBS, pH 7.4. The resulting solutions (n = 3) were incubated at 37 °C for 7 days in a thermomixer. Dissociation of 89Zr from 89Zr-complexes was monitored by radio-TLC at 2 h, 1 d, 4 d and 7 d time point. All studies were performed in triplicate.

[3] = In vitro serum stability (radio-ITLC); format: in vitro ADME; settings: 37 C, after 7 days
Protocol: In vitro serum stability. In vitro serum stability was carried out by adding 10 µL of each 89Zr-labeled complex (70 μCi, 2.59 MBq) to 500 µL of human serum. The solutions (n=4) were incubated at 37 °C for 7 days and were analyzed daily for 1 week by radio -TLC using Varian ITLC-SA strips and 0.1 M EDTA (pH 5) as the mobile phase and gamma counting using an energy window of 500-1500 keV and standard protocols . Serum samples were also analyzed after 7 days by size exclusion chromatography (SEC) using a Superdex 200 10/300 GLTM column (GE Healthcare Life Sciences, Piscataway, NJ) and phosphate buffered saline (PBS) as eluent with a flow rate of 0.5 mL/min.
Figure S30. Radio-ITLC of 89Zr-DOTA solution in human serum at 37 °C after 0 h (a) and 7 days (b). […]

Biodistribution studies = format: in vivo, female NIH Swiss mice
Protocol: Biodistribution Studies. Biodistribution studies were conducted using a modified literature procedure. 7 Briefly, female NIH Swiss mice (6-8 wk old, n=6) were injected with each 89Zr-labeled complex (0.55 MBq (15 μCi)/mouse) via the tail vein, and sacrificed at 2, 4, 24, 48, 72 h post-injection. Organs and tissues of interest were excised, weighted, and counted on a Perkin Elmer 2480 Wizard® gamma counter (Waltham, MA). The percent injected dose per gram (%ID/g) and percent injected dose per organ (%ID/organ) were calculated by comparison to a weighed, counted standard for each group (Tables S9 – S12).
Statistical Methods. All of the data are presented as mean±SD or mean (95% Confidence Interval). For statistical classification a student’s t test (two-tailed, unpaired) was performed using GraphPad Prism (San Diego, CA). Any p<0.05 was considered significant.

[4] = mice, intravenous, 72 h post-injection

- Transchelation in EDTA challenge ([1]; 100-, 500-, and 1000-fold excess of EDTA at pH 5 or pH 7 over 7 days): did not undergo transchelation
- % Intact of 89Zr-complexes ([1]; EDTA 100-fold, pH 5.0, 37 C, 1 h): 100%
- % Intact of 89Zr-complexes ([1]; EDTA 100-fold, pH 5.0, 37 C, 1 d): 100%
- % Intact of 89Zr-complexes ([1]; EDTA 100-fold, pH 5.0, 37 C, 3 d): 100%
- % Intact of 89Zr-complexes ([1]; EDTA 100-fold, pH 5.0, 37 C, 5 d): 100%
- % Intact of 89Zr-complexes ([1]; EDTA 100-fold, pH 5.0, 37 C, 7 d): 100%
- % Intact of 89Zr-complexes ([1]; EDTA 100-fold, pH 7.0, 37 C, 1 h): 100%
- % Intact of 89Zr-complexes ([1]; EDTA 100-fold, pH 7.0, 37 C, 1 d): 100%
- % Intact of 89Zr-complexes ([1]; EDTA 100-fold, pH 7.0, 37 C, 3 d): 100%
- % Intact of 89Zr-complexes ([1]; EDTA 100-fold, pH 7.0, 37 C, 5 d): 100%
- % Intact of 89Zr-complexes ([1]; EDTA 100-fold, pH 7.0, 37 C, 7 d): 100%
- % Intact of 89Zr-complexes ([1]; EDTA 500-fold, pH 5.0, 37 C, 1 h): 100%
- % Intact of 89Zr-complexes ([1]; EDTA 500-fold, pH 5.0, 37 C, 1 d): 100%
- % Intact of 89Zr-complexes ([1]; EDTA 500-fold, pH 5.0, 37 C, 3 d): 100%
- % Intact of 89Zr-complexes ([1]; EDTA 500-fold, pH 5.0, 37 C, 5 d): 100%
- % Intact of 89Zr-complexes ([1]; EDTA 500-fold, pH 5.0, 37 C, 7 d): 100%
- % Intact of 89Zr-complexes ([1]; EDTA 500-fold, pH 7.0, 37 C, 1 h): 100%
- % Intact of 89Zr-complexes ([1]; EDTA 500-fold, pH 7.0, 37 C, 1 d): 100%
- % Intact of 89Zr-complexes ([1]; EDTA 500-fold, pH 7.0, 37 C, 3 d): 100%
- % Intact of 89Zr-complexes ([1]; EDTA 500-fold, pH 7.0, 37 C, 5 d): 100%
- % Intact of 89Zr-complexes ([1]; EDTA 500-fold, pH 7.0, 37 C, 7 d): 100%
- % Intact of 89Zr-complexes ([1]; EDTA 1000-fold, pH 5.0, 37 C, 1 h): 100%
- % Intact of 89Zr-complexes ([1]; EDTA 1000-fold, pH 5.0, 37 C, 1 d): 100%
- % Intact of 89Zr-complexes ([1]; EDTA 1000-fold, pH 5.0, 37 C, 3 d): 100%
- % Intact of 89Zr-complexes ([1]; EDTA 1000-fold, pH 5.0, 37 C, 5 d): 100%
- % Intact of 89Zr-complexes ([1]; EDTA 1000-fold, pH 5.0, 37 C, 7 d): 100%
- % Intact of 89Zr-complexes ([1]; EDTA 1000-fold, pH 7.0, 37 C, 1 h): 100%
- % Intact of 89Zr-complexes ([1]; EDTA 1000-fold, pH 7.0, 37 C, 1 d): 100%
- % Intact of 89Zr-complexes ([1]; EDTA 1000-fold, pH 7.0, 37 C, 3 d): 100%
- % Intact of 89Zr-complexes ([1]; EDTA 1000-fold, pH 7.0, 37 C, 5 d): 100%
- % Intact of 89Zr-complexes ([1]; EDTA 1000-fold, pH 7.0, 37 C, 7 d): 100%
- % Intact of 89Zr-complexes ([2]; Co2+, 2 h): 100%
- % Intact of 89Zr-complexes ([2]; Co2+, 1 d): 100%
- % Intact of 89Zr-complexes ([2]; Co2+, 4 d): 100%
- % Intact of 89Zr-complexes ([2]; Co2+, 7 d): 100%
- % Intact of 89Zr-complexes ([2]; Cu2+, 2 h): 100%
- % Intact of 89Zr-complexes ([2]; Cu2+, 1 d): 100%
- % Intact of 89Zr-complexes ([2]; Cu2+, 4 d): 100%
- % Intact of 89Zr-complexes ([2]; Cu2+, 7 d): 100%
- % Intact of 89Zr-complexes ([2]; Fe3+, 2 h): 100%
- % Intact of 89Zr-complexes ([2]; Fe3+, 1 d): 100%
- % Intact of 89Zr-complexes ([2]; Fe3+, 4 d): 100%
- % Intact of 89Zr-complexes ([2]; Fe3+, 7 d): 100%
- % Intact of 89Zr-complexes ([2]; Ga3+, 2 h): 100%
- % Intact of 89Zr-complexes ([2]; Ga3+, 1 d): 100%
- % Intact of 89Zr-complexes ([2]; Ga3+, 4 d): 100%
- % Intact of 89Zr-complexes ([2]; Ga3+, 7 d): 100%
- % Intact of 89Zr-complexes ([2]; Gd3+, 2 h): 100%
- % Intact of 89Zr-complexes ([2]; Gd3+, 1 d): 100%
- % Intact of 89Zr-complexes ([2]; Gd3+, 4 d): 100%
- % Intact of 89Zr-complexes ([2]; Gd3+, 7 d): 100%
- % Intact of 89Zr-complexes ([2]; Mg2+, 2 h): 100%
- % Intact of 89Zr-complexes ([2]; Mg2+, 1 d): 100%
- % Intact of 89Zr-complexes ([2]; Mg2+, 4 d): 100%
- % Intact of 89Zr-complexes ([2]; Mg2+, 7 d): 100%
- % Intact of 89Zr-complexes ([2]; Zn2+, 2 h): 100%
- % Intact of 89Zr-complexes ([2]; Zn2+, 1 d): 100%
- % Intact of 89Zr-complexes ([2]; Zn2+, 4 d): 100%
- % Intact of 89Zr-complexes ([2]; Zn2+, 7 d): 100%
- Demetallation in metal competition ([2]; excess metal salts in aqueous buffer, over the 7 day experiment): no demetallation
- Radio-ITLC peak of complex in human serum [3]: 100%
- Blood (Biodistribution studies; 24 h, current study): 0.001±0.000 % ID/g
- Bone (Biodistribution studies; 24 h, current study): 0.036±0.008 % ID/g
- Heart (Biodistribution studies; 24 h, current study): 0.016±0.004 % ID/g
- Kidney (Biodistribution studies; 24 h, current study): 0.317±0.054 % ID/g
- Liver (Biodistribution studies; 24 h, current study): 0.068±0.004 % ID/g
- Muscle (Biodistribution studies; 24 h, current study): 0.004±0.001 % ID/g
- Radioactivity in bone (Biodistribution studies; [4]): 0.025 ± 0.009 % ID per g
- Radioactivity in kidney (Biodistribution studies; [4]): 0.078 ± 0.009 % ID per g
- Radioactivity in liver (Biodistribution studies; [4]): 0.021 ± 0.002 % ID per g
- Radioactivity retention in bone tissue over time (Biodistribution studies; mice, time points up to 72 h): remained low
Compound: O=C1CN2CCN3CCN4CCN(CC2)CC(=O)[O][89Zr]([O]1)([O]C(=O)C3)[O]C(=O)C4 [89Zr-DOTA]
- Radioactivity in blood (Biodistribution studies; [4]): 0.0003 ± 0.001 % ID per g and 0.0003 ± 0.0008 % ID per g
